# Results: US7390838B2, “Depigmenting agents” (Pfizer Inc., priority 2003, dated 2008)
smiles,measurement,value
"Oc1ccc(C2CCCC2)c(O)c1 [Form A, 4-cyclopentyl resorcinol]",melting point,65 to 66.5 °C
